Results reported in patent US10207011B2, “Methods, systems, and devices for an invertebrate model of traumatic brain injury” (WISCONSIN ALUMNI RESEARCH FOUNDATION, priority 2013, dated 2019).

Test system: w^1118 flies
Experiment: Mortality after standard TBI protocol in aspirin-fed flies
Assay type: in vivo, Drosophila
Details: 0-3-day old w^1118 flies cultured four days on food with 0.4 ml aspirin (200 mg/ml in DMSO) before standard TBI protocol; FIG. 5
Source text: Based on the data described in Example 2, we designed a standard TBI protocol for administering controlled impacts to generate primary injuries. The standard TBI protocol consisted of four impacts with five min recovery intervals between impacts. Reproducibility and rapidity were the driving forces behind the choice of protocol parameters. […] As a proof of concept for identifying an agent that could reduce the severity of an impact-associated phenotype, e.g., lethality, we tested whether, the non-steroidal anti-inflammatory drug, aspirin, affects TBI outcomes. Flies were treated with aspirin by feeding and then subjected to the standard TBI protocol. 0.4 ml of aspirin (200 mg/ml in DMSO) or DMSO only was added to vials with food and allowed to absorb into the food for two hours. 0-3-day old w^1118 flies, with an approximately equal number of male and female flies, were cultured on the food for four days. Flies were then left untreated or subjected to the standard TBI protocol. […] Thus, aspirin pre-treatment raises the primary injury threshold.

CC(=O)Oc1ccccc1C(=O)O [aspirin]
mortality 24 hours after a controlled impact, relative to DMSO-treated flies: lower mortality than the DMSO-treated flies
